Laboratory results reported in the pKa sets of Baltruschat and Czodrowski (2020).

Structure (SMILES): NCCCCCC[NH3+]
- pKa (basic group): 10.2

Structure (SMILES): O=C1C[C@H]2OCC(S(=O)(=O)[O-])=C3CN4CC[C@@]56c7ccccc7N1[C@@H]5[C@@H]2[C@@H]3C[C@@H]46
- pKa (basic group): 7.54

Structure (SMILES): CC(C)CC(N)C(N)=O (centres undefined)
- pKa (acidic group): 8

Structure (SMILES): COc1ccc(C(=O)O[C@H]2O[C@@H](C(=O)O)[C@H](O)[C@@H](O)[C@@H]2O)cc1OC
- pKa (acidic group): 3.47

Structure (SMILES): COc1cccc2c1-c1c(O)cccc1-2
- pKa (acidic group): 9.15

Structure (SMILES): O=C([O-])[C@@H]1O[C@H](Oc2cccc3ncccc23)[C@@H](O)[C@H](O)[C@H]1O
- pKa (basic group): 4.91

Structure (SMILES): C1CSCN1
- pKa (basic group): 6.31

Structure (SMILES): CNC(=N)CCNS(=O)(=O)c1ccc(C)cc1
- pKa (acidic group): 11.9
- pKa (basic group): 10

Structure (SMILES): Nc1ccncn1
- pKa (acidic group): 18.4
- pKa (basic group): 5.7

Structure (SMILES): NCCC[n+]1cc(Br)c2ccccc2c1
- pKa (basic group): 9.53

Structure (SMILES): COc1ccc(C=O)cc1C(=O)N[C@@H]1C[C@H]2CC[C@@H](C1)N2Cc1ccccc1
- pKa (basic group): 8.74

Structure (SMILES): COc1cc2c(cc1OC)[C@@H]1Cc3ccc(OC)c(O)c3[C@H](C2)N1C
- pKa (acidic group): 9.85

Structure (SMILES): NC(=S)Nc1cccc(Cl)c1
- pKa (acidic group): 12

Structure (SMILES): c1cc([C@@H]2CCCN2)nc([C@@H]2CCCN2)c1
- pKa (basic group): 10.1

Structure (SMILES): NC(CC(=O)[O-])c1ccccn1 (centres undefined)
- pKa (basic group): 9.22

Structure (SMILES): O=C(O)c1cc[nH+]cc1
- pKa (acidic group): 1.71

Structure (SMILES): OC(c1ccccc1)(c1ccncc1)c1ccncc1
- pKa (acidic group): 13.1

Structure (SMILES): CCOCCN(CCOCC)c1ccccc1
- pKa (basic group): 4.1

Structure (SMILES): O=C(CC(=O)C(F)(F)F)c1ccccc1
- pKa (acidic group): 6.3

Structure (SMILES): CC(N)CC#N (centres undefined)
- pKa (basic group): 7.85

Structure (SMILES): Nc1ccnc([S-])n1
- pKa (basic group): 10.6

Structure (SMILES): O=c1ccc2ccccc2cc1O
- pKa (acidic group): 10

Structure (SMILES): COc1ccc(/C=N/c2ncc3nc[nH]c3n2)cc1
- pKa (basic group): 3.86

Structure (SMILES): NC(=O)c1cc(-c2ccccc2)nnc1NCCN1CCOCC1
- pKa (acidic group): 6.85

Structure (SMILES): c1csc(C2CCCN2)c1 (centres undefined)
- pKa (basic group): 9.35

Structure (SMILES): Cc1cccc(/N=C/N(C)C)c1
- pKa (basic group): 9.11

Structure (SMILES): OCCNCCO
- pKa (basic group): 9.04

Structure (SMILES): COCCNc1ccc(C)cc1
- pKa (basic group): 4.64

Structure (SMILES): CC(c1cccc(F)c1)[N+](=O)[O-] (centres undefined)
- pKa (acidic group): 7.05

Structure (SMILES): CCc1c(O)ccc(C(C)C)c1C
- pKa (acidic group): 10.8

Structure (SMILES): [O-]c1ccc(O)cc1Cl
- pKa (acidic group): 10.8

Structure (SMILES): O/N=C/c1ccc(Cl)cc1
- pKa (acidic group): 10.5

Structure (SMILES): COc1ccc2nc3ccccc3cc2c1
- pKa (basic group): 3.82

Structure (SMILES): C[NH+](C)CCc1nnn[nH]1
- pKa (acidic group): 4.59
- pKa (basic group): -2.8

Structure (SMILES): CN(C)/C=N/c1ccc([N+](=O)[O-])cc1
- pKa (basic group): 6.71

Structure (SMILES): CC1(C(=O)O)CCCCC1
- pKa (acidic group): 5.13

Structure (SMILES): O=[PH]([O-])C([NH2+]Cc1ccncc1)c1ccccc1O (centres undefined)
- pKa (basic group): 3.25

Structure (SMILES): Nc1ccc([I+]c2ccccc2)cc1
- pKa (basic group): 1.66

Structure (SMILES): C[C@H]1C[C@@H]2CCC[C@@H]2N1C
- pKa (basic group): 10.1

Structure (SMILES): CC(=O)c1cccc(NC(N)=S)c1
- pKa (acidic group): 12.1

Structure (SMILES): O=C([O-])C1(C(=O)O)CCCC1
- pKa (acidic group): 6.08

Structure (SMILES): C[C@]1(O)CCCC[C@@H]1N
- pKa (basic group): 9.49

Structure (SMILES): [O-]c1[nH+]cncc1O
- pKa (basic group): 1.99

Structure (SMILES): O=C(/C=C/c1c[nH]cn1)OCCCl
- pKa (basic group): 4.8

Structure (SMILES): CCCCCCCCOCCN(C)C
- pKa (basic group): 8.87

Structure (SMILES): CCC(N)C(=O)[O-] (centres undefined)
- pKa (basic group): 9.67

Structure (SMILES): NCCCc1ccccc1
- pKa (basic group): 10.3

Structure (SMILES): O=C1COC(=O)C1Br (centres undefined)
- pKa (acidic group): 2.23

Structure (SMILES): CC(C)(C(=O)O)C(C(N)=O)c1ccccc1 (centres undefined)
- pKa (acidic group): 4.8

Structure (SMILES): NS(=O)(=O)C(F)(F)Cl
- pKa (acidic group): 6.5

Structure (SMILES): CC(C)(N)C(N)=S
- pKa (basic group): 7.61

Structure (SMILES): CC(C)(C)c1cc([N+](=O)[O-])cc(C(C)(C)C)c1O
- pKa (acidic group): 6.92

Structure (SMILES): Cc1ccncn1
- pKa (basic group): 1.99

Structure (SMILES): Oc1ccc(F)cc1
- pKa (acidic group): 9.88

Structure (SMILES): CC(=O)c1cccc(O)c1
- pKa (acidic group): 9.12

Structure (SMILES): C[N+](C)(O)c1ccccc1
- pKa (acidic group): 4.21

Structure (SMILES): O=C(O)C1(O)CCCCCC1
- pKa (acidic group): 4.04

Structure (SMILES): COc1cnc(N)s1
- pKa (acidic group): 4.98

Structure (SMILES): c1ccc2cc(NCCNc3ccc4ccccc4c3)ccc2c1
- pKa (basic group): 3.7

Structure (SMILES): c1ccc2c(CC3=NCCN3)cccc2c1
- pKa (basic group): 10.3

Structure (SMILES): OCC(S)C[S-] (centres undefined)
- pKa (acidic group): 10.6

Structure (SMILES): NCCc1cnc[nH]1
- pKa (basic group): 9.4

Structure (SMILES): O=C(O)c1ccc(OCc2ccccc2)cc1
- pKa (acidic group): 4.44

Structure (SMILES): Sc1cc[nH+]c2ccccc12
- pKa (acidic group): 0.77

Structure (SMILES): O=[N+]([O-])Cc1ccccc1
- pKa (acidic group): 6.77

Structure (SMILES): CCP(=S)(CC)C(=S)NN
- pKa (basic group): 5.6

Structure (SMILES): Cc1cc(C)c2nccc(NCCC[NH+](C)C)c2c1[N+](=O)[O-]
- pKa (basic group): 6.37

Structure (SMILES): CC/C=C/Cc1[nH+]ccn1[C@H](C(=O)O)C(C)(C)S
- pKa (acidic group): 2

Structure (SMILES): NC(=O)C[C@H](N)C(N)=O
- pKa (acidic group): 7

Structure (SMILES): NCCCCCN
- pKa (basic group): 10.8

Structure (SMILES): CC(=O)C1C(=O)OC(=O)C=C1C (centres undefined)
- pKa (acidic group): 1.34

Structure (SMILES): O=C(O)[C@H]1C[C@@H]1c1ccccc1
- pKa (acidic group): 4.54

Structure (SMILES): O=C1NC(=O)[C@@H]2CCC[C@H]12
- pKa (acidic group): 9.53

Structure (SMILES): CC1CCCC(C)C1C(=O)O (centres undefined)
- pKa (acidic group): 4.88

Structure (SMILES): Nc1cncnc1
- pKa (basic group): 2.83

Structure (SMILES): CCN(CC)CCCC(C)Nc1cc(OC)cc2cccnc12 (centres undefined)
- pKa (basic group): 10.3

Structure (SMILES): CC1(C)CC=CC(=O)C1
- pKa (acidic group): 12.4

Structure (SMILES): Nc1nc([O-])c2ncn([C@@H]3C=C[C@H](CO)C3)c2n1
- pKa (basic group): 9.68

Structure (SMILES): COc1ccc(NC(=S)c2ccc(Cl)cc2)cc1
- pKa (acidic group): 11.3

Structure (SMILES): S=C1NCCO1
- pKa (acidic group): 11.1

Structure (SMILES): Nc1ccc2[nH]c(Cc3ccccc3)nc2c1
- pKa (basic group): 6.4

Structure (SMILES): Cc1cccc2ncccc12
- pKa (basic group): 5

Structure (SMILES): CC(C)(S)C(C(=O)[O-])n1ccnc1Cc1ccccc1 (centres undefined)
- pKa (acidic group): 10.5
- pKa (basic group): 7

Structure (SMILES): C[n+]1cccc2c(S)cccc21
- pKa (acidic group): 3.22

Structure (SMILES): CC1(C)S[C@H]2[C@@H](NC(=O)Cc3ccc(N)cc3)C(=O)N2[C@@H]1C(=O)[O-]
- pKa (basic group): 4.6
